{"source": "patent US9624219B2", "about": "“Compound (S) and (R)-N-(2-fluoropyridin-4-yl)-3-methyl-2-(5-methyl-2,4-dioxo-1,2-dihydropyrido[3,4-d]pyrimidin-3(4H)-yl)butanamide and use” (GlaxoSmithKline Intellectual Property Development Limited, priority 2015, dated 2017)", "key": {"[1]": {"system": "P. Falciparum Pf3D7A", "experiment": "P. falciparum growth inhibition assay ([3H]hypoxanthine incorporation)", "format": "cell-based", "details": "Plasmodium falciparum, 48 h, read-out: average Pf IC50", "protocol": "P. falciparum Growth Inhibition Assay. The sensitivity of P. falciparum infected erythrocytes to the compound is determined in triplicate using the [^3H]hypoxanthine incorporation method with an inoculum of 0.5% parasitemia (ring stage) and 2% hematocrit. The parasites were grown in RPMI 1640 and supplemented with […] (or 10% serum). Plates are incubated at 37° C., 5% CO2, 5% O2, 90% N2. After 24 h of incubation, [^3H]hypoxanthine is added and plates are incubated for another 24 h. After that period, plates are harvested on a glass fiber filter using a TOMTEC Cell harvester 96. Filters are dried and melt on scintillator sheets and the bound radioactivity is quantified by use of a Wallac Microbeta Trilux (Model 1450 LS-Perkin Elmer). IC50s are determined using Grafit 5 program (Grafit program; Erithacus Software, Horley, Surrey, United Kingdom)."}, "[2]": {"system": "Plasmodium falciparum Pf3D7^0087/N9", "experiment": "P. falciparum in vivo efficacy assay (mouse model)", "parameters": "species or system NODscidIL2Rγ^null mice engrafted with human erythrocytes", "details": "interval of confidence 95%", "protocol": "P. falciparum In Vivo Efficacy Assay.\nAntimalarial in vivo efficacy was determined using the P. falciparum mouse model following the procedure described in: Jimenez-Diaz, M. B., Mulet, T., Viera, S., Gómez, V., Garuti, H., Ibañez, J., Alvarez-Doval, A., Shlutz, D. L., Martinez, A., Improved Murine Model Of Malaria Using Plasmodium falciparum (Competent Strains and Non-Myelodepleted NOD-scid IL2R_null Mice Engrafted with Human Erythrocytes) Antimicrob. Agents Chemother 2009, 53 (10), 4533-4536.\nThe goal of this study is to assess the therapeutic efficacy of Example 1 against Plasmodium falciparum Pf3D7^0087/N9 growing in peripheral blood of NODscidIL2Rγ^null mice engrafted with human erythrocytes. The levels of Example 1 are measured in serial peripheral blood samples obtained from each mouse of the efficacy experiment during the first 23 hrs after the first dose. The area under the curve of levels of compound is used to estimate the exposure in blood during the first 23 hours after the first administration (AUC0-23h).\nThe effect of Example 1 on P. Falciparum Pf3D7^0087/N9 was assessed by microscopy and flow cytometry."}, "[3]": {"experiment": "Solubility assessment in FaSSIF (equilibrium solubility)", "format": "physicochemical", "details": "thermodynamic from solid, 4 hr at room temperature, LC-MS", "protocol": "Solubility Assessment in FaSSIF\nOrganic solvents of HPLC grade were used. Ultra pure water (Milli-Q grade) was used. Buffers were prepared with ultra pure water and filtered using 0.45μ nylon filters.\nDetermination of Equilibrium Solubility (Assuming Chemical Stability in the Desired Solvent is not a Problem).\n• a) 1 mg of solid compound was weighted in one 4 mL glass vial and 1 mL of FaSSIF was added. All these samples were prepared by duplicate. • b) The samples were stirred (roller mixer) for 4 hr at room temperature. If required, additional solid compound (0.1 mg) was added to maintain excess of it (saturated solutions). • c) After 4 hours, the samples were centrifuged (10000 rpm, 10 min.) and the supernatants were transfer to an HPLC vial and analysed by LC-MS (previous dilution with mobile phase when needed). • d) The pH of the final solution in each sample was measured with a pH-meter (WTW pH330i and a pH-electrode Sentix 41). LC-MS Assay for Analytical Quantification\nAll supernatants were analysed by LC-MS. Quantification of those samples was carried out against calibration curves obtained from 1 mg/mL DMSO (Aldrich cat. ref.: 27685-5) stock solutions, by dilution with the mobile phase used in the chromatography. Depending on the solubility range, U.V. (1 μg/mL to 100 μg/mL) or MS (1 μg/mL to 1 ng/mL) detector were used in the quantification. […]"}}, "data": [{"molecule": "Cc1cncc2[nH]c(=O)n([C@H](C(=O)Nc3ccnc(F)c3)C(C)C)c(=O)c12", "note": "[Example 1, (S)—N-(2-fluoropyridin-4-yl)-3-methyl-2-(5-methyl-2,4-dioxo-1,2-dihydropyrido[3,4-d]pyrimidin-3(4H)-yl)butanamide]", "values": [{"measurement": "IC50", "setting": "[1]", "value": 32, "unit": "nM"}, {"measurement": "mean ED90", "setting": "[2]; P. falciparum Pf3D7^0087/N9 in humanised NODscidIL2Rγnull mice", "value": 0.53, "unit": "mg/kg"}, {"measurement": "mean AUCED90", "setting": "[2]; blood exposure at ED90 (AUC0-23h after first dose), P. falciparum mouse model", "value": 0.18, "unit": "μg·h·mL-1·day-1"}, {"measurement": "solubility at 4 h", "setting": "[3]", "value": 426, "unit": "µg/mL"}]}]}
